Source: patent US20090209620A1, “Direct Reversal Of The Suppressive Function Of CD4+Regulatory T Cells Via Toll-Like Receptor 8 Signaling” (priority 2005, published 2009)
Entries after “also recorded” stand apart in the source; their conditions may differ. In the oligonucleotide strings, read from the 5' end, every base follows the letter of its sugar. An asterisk marks phosphorothioate; unmarked linkages are phosphodiester. Other units and linkages are bracketed, terminal groups are in braces. A string of capitals states the bases alone. d = 2'-deoxy (DNA)

Legend:
[1] = tested on: CD4+ Treg cells (Treg102, Treg164); assay: Proliferation assay with dendritic cells: Treg suppression of naive CD4+ T cell proliferation ([3H]thymidine); assay type: cell-based, human; conditions: with DCs; LPS 100 ng/ml, IL-6 100 ng/ml, IFN-α 100 ng/ml
Text: (§1) Establishing Treg cell lines and purifying natural CD4^+ CD25^+ Treg cells CD4^+ Treg clones were established from CD4^+ tumor-infiltrating lymphocytes (TIL102 and TIL164) and maintained in RPMI 1640 medium containing 10% human AB serum and recombinant IL-2 (300 IU/ml) using methods well known in the art (See, e.g., H. Y. Wang et al., Immunity 20, 107-118 (2004)). Treg clones derived from TIL102 or TIL164 cells were pooled and designated Treg102 or Treg164. Naturally occurring CD4^+ CD25^+ Treg cells were obtained by sorting CD4^+ T cell populations from fresh PBMCs after staining with anti-CD4 and anti-CD25 antibodies. To obtain optimal expansion, the OKT3 expansion method was performed using methods well known in the art (See, e.g., H. Y. Wang et al., Immunity 20, 107-118 (2004)). T cell clones were maintained at a low IL-2 concentration (300 IU/ml). Melanoma cell lines and EBV-transformed B-cell lines used in this study were cultured in RPMI 1640 medium containing 10% FCS. Human embryonic kidney (HEK) 293 and Epstein-Barr virus (EBV)-transformed B cell lines were maintained in RPMI 1640 with 10% fetal calf serum (FCS).
A. Proliferation assay with Dendritic Cells (DCs): Näive CD4^+ T cells were purified from PBMCs using microbeads (Miltenvi Biotec). DCs were generated from PBMC-derived monocytes in the presence of IL-4 (500 ng/ml) and GM-CSF (800 ng/ml) for 7 days. 1×105 näive CD4^+ T cells were cultured with regulatory T cells at different ratios (1: 0.2, 1:0.1 and 1:0.05) in 200 ul of medium containing 2×104 of DCs and anti-CD3 antibody (100 ng/ml) plus one of the following TLR ligands or cytokines: CpG-A (3 ug/ml), CpG-B (3 ug/ml), LPS (100 ng/ml), TNF.-α (20 ng/ml), IFN-α (100 ng/ml), or IL-6 (100 ng/ml). After 56 h of culture, [3H]thymidine was added at a final concentration of 1 uCi/well, followed by an additional 16 h. of culture. The incorporation of [^3H]thymidine was measured with a liquid scintillation counter, using methods well known in the art (See, e.g., M. K. Levings et al., J. Exp. Med. 196, 1335-46 (2002)). All experiments were performed in triplicate.
Two CD4^+ Treg cell lines, designated Treg102 and Treg164, were generated with a panel of Treg cell clones derived from TIL102 and TIL164 cells. […] A functional proliferation assay was employed to examine whether CpG (a TLR9 ligand), LPS (a TLR4 ligand) or the cytokines IL-6 or IFN-α could regulate the suppressive activity of antigen specific human CD4^+ Treg cells in the presence of DCs. […]

[2] = tested on: CD4+ Treg cells (Treg102, Treg164); assay: Proliferation assay without DCs: Treg suppression of naive CD4+ T cell proliferation, anti-CD3-coated plates; assay type: cell-based, human; conditions: absence of DCs; anti-CD3-coated plates; oligonucleotides 3 ug/ml in medium
Text: as §1
B. Proliferation assay without DCs: 1×10^5 näive CD4 T cells were cultured with regulatory T cells at different ratios (1: 0.2, 1:0.1 and 1:0.05) in anti-CD3 mAb-coated (2 ug/ml) 96-well plates in the presence or absence of the following TLR ligands or cytokines: CpG-A (3 ug/ml), CpG-B (3 ug/ml), LPS (100 ng/ml), TNF.-α (20 ng/ml), IFN-α (100 ng/ml), or IL-6 (100 ng/ml). After 56 h of culture, [3H]thymidine was added at a final concentration of 1 uCi/well, followed by an additional 16 h of culture. The incorporation of [^3H]thymidine was measured with a liquid scintillation counter.
Näive CD4^+ T cell proliferation experiments were performed similar to those in FIG. 1A, but in the absence of DCs. […] The reversal effect of CpG-A (SEQ ID NO: 1) contrasts with the failure of CpG-B (SEQ ID NO: 2), LPS, TNF-α, IL-6 or IFN-α to block the suppressive activity of CD4^+ Treg cells against naive CD4^+ T cells (FIG. 1B).
To further define the CpG-A (SEQ ID NO: 1) sequences responsible for the observed reversal effect, CpG-NG (SEQ ID NO: 5) and Poly-G10 (SEQ ID NO: 6), were tested for their ability to reverse the suppressive function of Treg cells. Naive CD4^+ T cells were mixed with CD4^+ Treg cells in anti-CD3 antibody-coated 96-wells with 200 μl of medium containing CpG-NG (SEQ ID NO: 5), CpG-A (SEQ ID NO: 1) or Poly-G10 (SEQ ID NO: 6). The proliferation assay was conducted as described in FIG. 1. […] For the experiments shown in FIG. 2B, naive CD4^+ T cells were mixed with CD4^+ Treg cells in anti-CD3 antibody-coated 96-wells with 200 μl of medium containing Poly-A10 (SEQ ID NO: 7), Poly-T10 (SEQ ID NO: 9) or Poly-C10 (SEQ ID NO: 8), while the Poly-G10 (SEQ ID NO: 6) oligonucleotides served as a positive control.
A series of oligonucleotides with decreasing numbers of guanosine nucleosides was constructed to determine the minimal number required for the reversal effect. For the experiments in FIG. 2C, CD4^+ T cells were mixed with CD4^+ Treg cells in anti-CD3 antibody-coated 96-wells containing medium with protected phosphorothioate linked guanosine nucleoside containing oligonucleotides of various lengths, while the unprotected five guanosines (SEQ ID NO: 10) served as a control.

586mel human tumor cells = assay: Human 586mel tumor model in Rag1-/- mice with adoptive transfer of TIL586 and Treg102 cells; assay type: in vivo; conditions: 586mel s.c. day 0; CD8+ TIL586 plus Treg102 cells with oligonucleotide on day 3; n=6 mice per group
Procedure: Human 586mel tumor cells (5×106) in 100 μl of buffered saline were subcutaneously injected into Rag1^−/− mice (lacking T and B cells) or Rag 2 ^−/− γC ^−/− mice (lacking T, B and NK cells) on day 0. Tumor-specific CD8^+ TIL586 cells (2.5×107), which recognize and kill 586mel cells, were injected intravenously on day 3 with or without Treg102 cells (3×106) pretreated with Poly-G10 or Poly-T10. Tumor size was measured with calipers every 2-3 days. Tumor volume was calculated on the basis of two-dimensioned measurements. Tumor growth curves were compared with the Wilcoxon rank-sum test.
The data in FIG. 4A-B confirms that TLR8 serves as a receptor for synthetic guanosine containing oligonucleotides and natural ssRNA40 and ssRNA33 ligands derived from HIV-1 virus, and that its activation in endosomes by synthetic DNA or ssRNA ligands triggers a signaling pathway that can reverse the suppressive function of Treg cells. To study the guanosine containing oligonucleotide induced reversal of Treg cell function in vivo, a human tumor model was established by subcutaneously injecting 586mel human tumor cells into Rag1^−/− (T and B cell deficient) mice. […] Tumor volumes were measured and presented as mean±SD (n=6 mice per group). P value was determined between groups as indicated. […]

[3] = tested on: antigen-specific Treg102 and Treg164 cells; assay: TLR ligand assays: reversal of Treg suppression of naive CD4+ T cell proliferation; assay type: cell-based, human
Procedure: Näive CD4 T+cells were purified from PBMCs by using microbeads (Miltenvi Biotec). Näive CD4^+ T cells ([…]) were cultured with regulatory T cells at a ratio of 10:1 in OKT3 (2 ug/ml)-coated, U bottomed 96-well plates containing the following ligands: LPS (100 ng/ml), imiquimod (10 μg/ml), loxoribine (500 μM), poly(I:C) (25 μg/ml), ssRNA40/LyoVec (3 μg/ml), ssRNA33/LyoVec (3 μg/ml), pam3CSK4 (200 ng/ml) and flagellin (10 μg/ml) were purchased from Invivogene (San Diego, Calif.), while CpG-A (3 μg/ml), CpG-B (3 μg/ml) and Poly-G oligonucleotides (3 μg/ml) were synthesized in Integrated DNA Technologies, Inc (Coralville, Iowa). Functional assays were identical to those described above.
If the TLR8-MyD88-IRAK4 signaling pathway is necessary and sufficient for direct reversal of the suppressive function of Treg cells, it should be possible to produce that effect with natural ligands for human TLR8. For FIG. 4A-B, naive CD4^+ T cells were mixed with Treg102, Treg164 or naturally occurring CD4^+ CD25^+ Treg cells in anti-CD3 antibody-coated wells in the presence of different TLR ligands. Data are presented as means±SD and represent results from three independent experiments.

[4] = tested on: naturally occurring CD4+ CD25+ Treg cells; assay: Reversal of suppressive function of naturally occurring CD4+CD25+ Treg cells (proliferation assay); assay type: cell-based; conditions: sorted from fresh human PBMCs; anti-CD3-coated wells
Text: as §1, with “Melanoma cell lines and EBV-transformed B-cell lines used in this study were cultured in RPMI 1640 medium containing 10% FCS. Human embryonic kidney (HEK) 293 and Epstein-Barr virus (EBV)-transformed B cell lines were maintained in RPMI 1640 with 10% fetal calf serum (FCS).” left out
The expression of CD4, CD25 and GITR on Treg cells was determined by FACS analysis after staining with specific antibodies (purchased from R&D Systems and BD Biosciences). […] After 3 days in culture, the cells were analyzed by FACS gating on the CFSE-labeled cells. […]
FIG. 2E: Both CD4^+ CD25^+ and CD25^− T cells were sorted after staining of freshly isolated human CD4^+ T cells with anti-CD4 and anti-CD25 antibodies. The purity of the sorted T cells was determined by FACS. […]

Compound	restoration of proliferative ability of naive CD4+ T cells in the presence of CD4+ Treg cells [1]	reversal of Treg cell-mediated suppression of naive CD4+ T cell proliferation [2]	reversal of suppressive function of naturally occurring CD4+CD25+ Treg cells [4]	further results
IL-6: cytokine	did not restore the proliferative ability	failure	–	–
Poly-T10: control oligonucleotide with protected phosphorothioate backbone (DNA TTTTTTTTTT)	–	failed to reverse the suppressive function of Treg cells; also recorded: lacked the ability to reverse the suppressive activity of Treg cells	–	tumor growth / antitumor immunity (586mel human tumor cells): grew faster than in mice receiving 586mel cells alone
CC(C)Cn1cnc2c(N)nc3ccccc3c21 [Imiquimod]	–	–	little or no effect	reversal of suppressive function of antigen-specific Treg cells ([3]; Treg102 and Treg164, naive T:Treg 10:1, OKT3-coated plates): partial reversal
lipopolysaccharide [LPS]	did not restore the proliferative ability	failure	–	restoration of proliferation of naive CD4+ T cells in the presence of Treg cells ([3]; Treg102, Treg164 or naturally occurring CD4+CD25+ Treg cells (FIG. 4A-B)): failed to restore the proliferation of naive CD4^+ T cells
Poly-G5: Poly-G oligonucleotide with phosphorothioate linkages (DNA dG*dG*dG*dG*dG)	–	–	Reversal of suppressive function; also recorded: entirely reversed; also recorded: could be reversed	–
IFN-α	did not restore the proliferative ability	failure	–	–
